Laboratory results reported in patent US6723680B2, “Composition for regulation of gametophytic self-incompatibility, control method of gametophytic self-incompatibility of a plant and the plant self-pollinated by using said control method” (Istech Co., Ltd., priority 2000, dated 2004).

Test system: style-specific S1 RNase and S2 RNase
Experiment: Inhibition of style-specific RNase activity
Format: biochemical, Fuji apple
Details: 1 mM DEPC
Experimental: The activity variation of the style-specific S1 RNase and S2 RNase purified in the Example 1-4 was investigated by adding chemicals acting as an inhibitor of protein degradation enzyme. RNase activity was measured by adding general stimulators of RNase activity, inhibitors of RNase activity commercially available and inhibitor candidate of a style-specific RNase of the present invention (Singh A. et al., Plant Physiology, 96:61-68, 1991). Among them, 1 mM EDTA, which is a representative inhibitor of protein degradation enzyme, 1 mM CaCl2, a stimulator of RNase activity, 1 mM DEPC (Sigma), a fatally poisonous inhibitor of RNase activity commercially available, and 1 mM ZnSO4 and 1 mM CuSO4, inhibitor candidates of the style-specific RNase was added respectively to mesure RNase activity.

With CCOC(=O)OC(=O)OCC [DEPC] the “style-specific RNase activity” value was “inhibited”.
